Reference: US11365188B2, “JAK inhibitors” (priority 2018, dated 2022)
Counter-ions that a name gives are not always drawn.

Experiments:
Type in all cases: biochemical
JAK1 = JAK1 (Homo sapiens, UniProt P23458); assay: JAK Kinase Assay (JAK1, Caliper EZ Reader, fluoresceinated peptide); settings: ATP 76.5 μM; JAK1 10 nM; 120 minutes at room temperature; read-out: JAK1 inhibition
JAK2 = JAK2 (Homo sapiens, UniProt O60674); assay: JAK2 Assay (Caliper EZ Reader, fluoresceinated peptide); settings: ATP 11.4 μM; JAK2 0.25 nM; 15 minutes at room temperature; read-out: JAK2 inhibition
JAK3 = target: T1, JAK3 (Homo sapiens, UniProt P52333); assay: JAK3 Assay (Caliper EZ Reader, fluoresceinated peptide); settings: ATP 3.5 μM; JAK3 0.5 nM; 30 minutes at room temperature; read-out: JAK3 inhibition
T1 sequence (P52333 1-1124): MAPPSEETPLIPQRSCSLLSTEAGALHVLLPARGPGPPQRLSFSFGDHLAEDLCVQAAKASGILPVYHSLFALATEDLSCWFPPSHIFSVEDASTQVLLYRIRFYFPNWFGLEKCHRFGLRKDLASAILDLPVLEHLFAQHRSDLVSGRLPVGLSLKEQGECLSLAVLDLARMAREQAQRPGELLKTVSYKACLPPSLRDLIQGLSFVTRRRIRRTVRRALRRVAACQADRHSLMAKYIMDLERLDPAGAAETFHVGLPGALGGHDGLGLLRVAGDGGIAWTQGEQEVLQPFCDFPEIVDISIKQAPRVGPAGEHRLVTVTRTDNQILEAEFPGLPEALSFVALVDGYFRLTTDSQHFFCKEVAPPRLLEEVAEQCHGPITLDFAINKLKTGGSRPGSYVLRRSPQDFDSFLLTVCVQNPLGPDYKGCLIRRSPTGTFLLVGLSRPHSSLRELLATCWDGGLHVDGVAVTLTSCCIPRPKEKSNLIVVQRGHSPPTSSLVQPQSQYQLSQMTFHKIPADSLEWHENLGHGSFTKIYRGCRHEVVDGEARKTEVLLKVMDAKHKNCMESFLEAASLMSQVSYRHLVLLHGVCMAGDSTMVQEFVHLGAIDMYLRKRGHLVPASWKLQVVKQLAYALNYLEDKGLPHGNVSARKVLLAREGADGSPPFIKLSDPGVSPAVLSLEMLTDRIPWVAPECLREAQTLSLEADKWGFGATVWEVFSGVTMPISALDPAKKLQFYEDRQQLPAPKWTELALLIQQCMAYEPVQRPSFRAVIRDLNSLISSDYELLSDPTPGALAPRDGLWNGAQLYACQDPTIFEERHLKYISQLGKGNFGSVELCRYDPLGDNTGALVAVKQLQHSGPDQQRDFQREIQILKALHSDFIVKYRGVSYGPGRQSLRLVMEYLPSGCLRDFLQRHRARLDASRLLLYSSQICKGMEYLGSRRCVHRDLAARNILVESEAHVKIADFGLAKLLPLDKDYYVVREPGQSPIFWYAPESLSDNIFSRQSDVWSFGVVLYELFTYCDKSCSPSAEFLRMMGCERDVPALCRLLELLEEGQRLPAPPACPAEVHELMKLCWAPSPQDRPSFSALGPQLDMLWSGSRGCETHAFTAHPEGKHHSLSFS

TYK2 = TYK2 (Homo sapiens, UniProt P29597); assay: TYK2 Assay (Caliper EZ Reader, fluoresceinated peptide); settings: ATP 35.4 μM; TYK2 10 nM; 10 minutes at room temperature; read-out: TYK2 inhibition
Method: 384-well plates in the left foot butoxy measured progress. The final assay volume was 25 μL, 250 nL 100× compounds, 10 μL enzyme mix and 15 μL substrate mix (fluoresceinated peptide and ATP) in assay buffer (50 mM HEPES (pH 7.5), 10 mM MgCl2, 0.01% TritonX-100, 0.01% Brij35, 0.5 mM EGTA and 2 mM DTT) prepared as test compound. B mixing the TYK2 with substrates and test compounds to start the reaction. The reaction mixture was incubated for 10 minutes at room temperature, then added 30 μL stop buffer for each sample to terminate the reaction with 50 mM EDTA. After termination of the kinase reaction, the proportion of phosphorylated product was determined as a fraction of total peptide substrate using Caliper EZ Reader 1. Inhibition data were calculated by comparison with 100% of the reaction mixture without enzyme inhibition and vehicle-only reaction mixture billion % inhibition compared. The final concentration of reagents in the assays is: ATP, 35.4 μM; TYK2 fluorescent peptide (5-FAM-KKKKEEIYFFF-CONH2), 3 μM; TYK2, 10 nM; and DMSO, 1% Dose response curve were generated to determine the concentration required for IC50 of TYK2 activity.

Sequence of JAK1 (P23458 whole entry, species assumed): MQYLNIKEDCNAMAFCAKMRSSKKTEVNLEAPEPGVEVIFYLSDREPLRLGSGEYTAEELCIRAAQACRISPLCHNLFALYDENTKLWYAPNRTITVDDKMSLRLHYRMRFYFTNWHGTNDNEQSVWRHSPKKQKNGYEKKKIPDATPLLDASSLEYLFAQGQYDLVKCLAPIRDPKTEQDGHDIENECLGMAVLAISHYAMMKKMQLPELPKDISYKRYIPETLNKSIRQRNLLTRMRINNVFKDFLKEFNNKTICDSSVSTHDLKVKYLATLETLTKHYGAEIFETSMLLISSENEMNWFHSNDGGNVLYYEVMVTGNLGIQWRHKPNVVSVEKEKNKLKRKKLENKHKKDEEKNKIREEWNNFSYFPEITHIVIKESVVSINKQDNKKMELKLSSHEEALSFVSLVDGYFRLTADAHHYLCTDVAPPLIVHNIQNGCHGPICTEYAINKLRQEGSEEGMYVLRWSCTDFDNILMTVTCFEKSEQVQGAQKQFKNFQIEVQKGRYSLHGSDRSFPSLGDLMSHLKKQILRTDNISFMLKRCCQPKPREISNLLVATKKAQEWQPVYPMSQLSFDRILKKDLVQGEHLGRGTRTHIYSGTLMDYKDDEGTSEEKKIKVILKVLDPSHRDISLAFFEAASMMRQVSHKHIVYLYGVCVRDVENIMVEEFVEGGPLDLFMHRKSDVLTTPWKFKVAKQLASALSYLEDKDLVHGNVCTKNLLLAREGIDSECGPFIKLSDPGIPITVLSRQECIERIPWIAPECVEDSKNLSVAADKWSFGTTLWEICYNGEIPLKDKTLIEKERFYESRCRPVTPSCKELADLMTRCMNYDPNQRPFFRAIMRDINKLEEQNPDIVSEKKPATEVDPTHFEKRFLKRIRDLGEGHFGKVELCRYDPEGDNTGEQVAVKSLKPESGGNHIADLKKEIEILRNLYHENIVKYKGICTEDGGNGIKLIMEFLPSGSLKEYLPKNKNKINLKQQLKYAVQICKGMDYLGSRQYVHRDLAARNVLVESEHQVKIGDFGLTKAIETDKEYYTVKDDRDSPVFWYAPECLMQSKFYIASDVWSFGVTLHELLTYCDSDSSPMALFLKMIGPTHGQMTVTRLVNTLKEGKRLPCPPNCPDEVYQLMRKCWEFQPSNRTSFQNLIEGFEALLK
Sequence of JAK2 (O60674 whole entry, species assumed): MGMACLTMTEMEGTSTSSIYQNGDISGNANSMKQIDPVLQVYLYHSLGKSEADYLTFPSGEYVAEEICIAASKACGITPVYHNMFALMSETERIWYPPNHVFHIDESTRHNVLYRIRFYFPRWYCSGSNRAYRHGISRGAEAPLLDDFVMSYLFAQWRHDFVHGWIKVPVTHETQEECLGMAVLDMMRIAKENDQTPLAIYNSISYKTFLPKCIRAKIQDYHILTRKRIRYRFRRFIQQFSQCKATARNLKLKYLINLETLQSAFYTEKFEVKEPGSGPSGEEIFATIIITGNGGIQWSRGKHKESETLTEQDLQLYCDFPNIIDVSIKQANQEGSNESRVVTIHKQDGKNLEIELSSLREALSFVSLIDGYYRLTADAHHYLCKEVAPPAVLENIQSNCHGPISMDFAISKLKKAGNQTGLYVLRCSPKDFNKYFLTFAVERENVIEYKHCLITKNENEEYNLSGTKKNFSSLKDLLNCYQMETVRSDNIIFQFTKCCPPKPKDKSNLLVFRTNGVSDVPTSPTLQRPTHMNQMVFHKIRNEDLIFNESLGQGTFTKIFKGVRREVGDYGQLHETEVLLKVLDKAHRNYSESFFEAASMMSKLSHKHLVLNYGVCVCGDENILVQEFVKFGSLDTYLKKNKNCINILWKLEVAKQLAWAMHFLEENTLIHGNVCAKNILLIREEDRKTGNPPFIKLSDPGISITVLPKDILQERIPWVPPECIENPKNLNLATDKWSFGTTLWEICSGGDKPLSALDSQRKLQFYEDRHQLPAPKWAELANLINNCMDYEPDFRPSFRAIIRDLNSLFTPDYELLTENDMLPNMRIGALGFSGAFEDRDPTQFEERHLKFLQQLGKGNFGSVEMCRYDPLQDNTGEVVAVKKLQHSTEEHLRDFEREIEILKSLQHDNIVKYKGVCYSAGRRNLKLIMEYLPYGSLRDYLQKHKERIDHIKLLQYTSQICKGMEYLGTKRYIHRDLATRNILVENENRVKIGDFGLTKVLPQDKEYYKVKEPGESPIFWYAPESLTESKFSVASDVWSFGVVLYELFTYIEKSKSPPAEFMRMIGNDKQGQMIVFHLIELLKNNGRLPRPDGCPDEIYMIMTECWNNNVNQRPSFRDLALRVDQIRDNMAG
Sequence of TYK2 (P29597 whole entry, species assumed): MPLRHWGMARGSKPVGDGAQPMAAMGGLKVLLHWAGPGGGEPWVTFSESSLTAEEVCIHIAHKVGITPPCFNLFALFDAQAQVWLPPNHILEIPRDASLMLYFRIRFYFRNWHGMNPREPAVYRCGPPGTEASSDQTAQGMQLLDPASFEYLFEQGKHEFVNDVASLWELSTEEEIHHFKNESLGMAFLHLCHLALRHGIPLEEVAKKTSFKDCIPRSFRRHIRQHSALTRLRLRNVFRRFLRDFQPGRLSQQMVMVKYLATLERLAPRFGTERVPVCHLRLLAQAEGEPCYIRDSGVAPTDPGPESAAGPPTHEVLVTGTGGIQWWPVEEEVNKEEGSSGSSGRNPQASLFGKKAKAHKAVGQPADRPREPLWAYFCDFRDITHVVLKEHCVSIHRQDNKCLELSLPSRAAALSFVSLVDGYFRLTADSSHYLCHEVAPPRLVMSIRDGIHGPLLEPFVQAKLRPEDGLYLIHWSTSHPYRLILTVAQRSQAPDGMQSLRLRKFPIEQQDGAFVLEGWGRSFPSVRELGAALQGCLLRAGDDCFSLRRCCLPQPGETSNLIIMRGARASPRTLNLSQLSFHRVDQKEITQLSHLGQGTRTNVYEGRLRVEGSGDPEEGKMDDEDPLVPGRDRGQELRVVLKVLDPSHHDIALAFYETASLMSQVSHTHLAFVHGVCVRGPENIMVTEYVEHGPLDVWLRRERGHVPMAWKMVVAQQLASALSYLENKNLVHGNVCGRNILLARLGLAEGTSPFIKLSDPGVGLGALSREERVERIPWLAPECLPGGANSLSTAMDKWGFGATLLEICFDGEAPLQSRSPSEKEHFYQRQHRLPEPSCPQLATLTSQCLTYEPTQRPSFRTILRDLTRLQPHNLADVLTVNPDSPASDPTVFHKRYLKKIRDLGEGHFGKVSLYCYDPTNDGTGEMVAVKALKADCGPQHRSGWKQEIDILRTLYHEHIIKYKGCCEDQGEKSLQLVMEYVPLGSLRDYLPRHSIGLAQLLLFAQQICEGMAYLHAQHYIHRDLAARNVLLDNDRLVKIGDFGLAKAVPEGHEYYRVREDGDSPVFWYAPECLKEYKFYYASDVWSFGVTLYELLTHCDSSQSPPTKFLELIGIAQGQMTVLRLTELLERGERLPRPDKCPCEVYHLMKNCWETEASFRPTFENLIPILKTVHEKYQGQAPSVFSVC

SMILES	IC50 (JAK1)	IC50 (JAK2)	IC50 (JAK3)	IC50 (TYK2)
CN(c1ncnc2[nH]ccc12)C1CC2(C1)CN(C(=O)c1ccc(C#N)c(F)c1)C2 [Compound 1, 2-fluoro-4-(6-(methyl(7H-pyrrolo[2,3-d]pyrimidin-4-yl)amino)-2-azaspiro[3.3]heptane-2-carbonyl)benzonitrile]	10 to 100 nM	1000 to 10000 nM	≥ 10 µM	≥ 10 µM
CN(c1ncnc2[nH]ccc12)C1CC2(C1)CN(C(=O)c1ccc(C#N)cc1F)C2 [Compound 14, 3-fluoro-4-(6-(methyl(7H-pyrrolo[2,3-d]pyrimidin-4-yl)amino)-2-azaspiro[3.3]heptane-2-carbonyl)benzonitrile]	10 to 100 nM	100 to 1000 nM	≥ 10 µM	≥ 10 µM
COc1ccc(C(=O)N2CC3(CC(N(C)c4ncnc5[nH]ccc45)C3)C2)cc1 [Compound 24, (4-methoxyphenyl)(6-(methyl(7H-pyrrolo[2,3-d]pyrimidin-4-yl)amino)-2-azaspiro[3.3]heptan-2-yl)methanone]	10 to 100 nM	1000 to 10000 nM	≥ 10 µM	≥ 10 µM
CN(c1ncnc2[nH]ccc12)C1CC2(C1)CN(C(=O)c1ccc(Cl)cc1)C2 [Compound 25, (4-chlorophenyl)(6-(methyl(7H-pyrrolo[2,3-d]pyrimidin-4-yl)amino)-2-azaspiro[3.3]heptan-2-yl)methanone]	10 to 100 nM	1000 to 10000 nM	≥ 10 µM	≥ 10 µM
C#Cc1ccc(C(=O)N2CC3(CC(N(C)c4ncnc5[nH]ccc45)C3)C2)cc1 [Compound 26, (4-ethynylphenyl)(6-(methyl(7H-pyrrolo[2,3-d]pyrimidin-4-yl)amino)-2-azaspiro[3.3]heptan-2-yl)methanone]	≤ 10 nM	100 to 1000 nM	≥ 10 µM	1 to 10 µM
CN(c1ncnc2[nH]ccc12)C1CC2(C1)CN(C(=O)c1ccc(F)cc1)C2 [Compound 27, (4-fluorophenyl)(6-(methyl(7H-pyrrolo[2,3-d]pyrimidin-4-yl)amino)-2-azaspiro[3.3]heptan-2-yl)methanone]	10 to 100 nM	1000 to 10000 nM	≥ 10 µM	≥ 10 µM
Cc1ccsc1C(=O)N1CC2(CC(N(C)c3ncnc4[nH]ccc34)C2)C1 [Compound 28, (6-(methyl(7H-pyrrolo[2,3-d]pyrimidin-4-yl)amino)-2-azaspiro[3.3]heptan-2-yl)(3-methylthiophen-2-yl)methanone]	10 to 100 nM	100 to 1000 nM	≥ 10 µM	≥ 10 µM
CN(c1ncnc2[nH]ccc12)C1CC2(C1)CN(C(=O)c1cc3ccccc3[nH]1)C2 [Compound 30, (1H-indol-2-yl)(6-(methyl(7H-pyrrolo[2,3-d]pyrimidin-4-yl)amino)-2-azaspiro[3.3]heptan-2-yl)methanone]	10 to 100 nM	100 to 1000 nM	≥ 10 µM	1 to 10 µM
CN(c1ncnc2[nH]ccc12)C1CC2(C1)CN(C(=O)c1ccc(C(F)(F)F)cc1)C2 [Compound 31, (6-(methyl(7H-pyrrolo[2,3-d]pyrimidin-4-yl)amino)-2-azaspiro[3.3]heptan-2-yl)(4-(trifluoromethyl)phenyl)methanone]	100 to 1000 nM	1000 to 10000 nM	≥ 10 µM	≥ 10 µM
CN(c1ncnc2[nH]ccc12)C1CC2(C1)CN(C(=O)c1ccc(Cl)cn1)C2 [Compound 32, (5-chloropyridin-2-yl)(6-(methyl(7H-pyrrolo[2,3-d]pyrimidin-4-yl)amino)-2-azaspiro[3.3]heptan-2-yl)methanone]	10 to 100 nM	1000 to 10000 nM	≥ 10 µM	≥ 10 µM
CCCS(=O)(=O)N1CCC2(CCC(N(C)c3ncnc4c3CCN4)CC2)CC1 [Compound 96, (6,7-Dihydro-5H-pyrrolo[2,3-d]pyrimidin-4-yl)-methyl-[3-(propane-1-sulfonyl)-3-aza-spiro[5.5]undec-9-yl]-amine]	100 to 1000 nM	100 to 1000 nM	1 to 10 µM	–
CNCC(=O)N1CCC2(CCC(N(C)c3ncnc4[nH]ccc34)CC2)CC1 [Compound 97, 2-Methylamino-1-{9-[methyl-(7H-pyrrolo[2,3-d]pyrimidin-4-yl)-amino]-3-aza-spiro[5.5]undec-3-yl}-ethanone HCl salt]	100 to 1000 nM	100 to 1000 nM	1 to 10 µM	–
CC(C)OC(=O)N1CCC2(CCC(N(C)c3ncnc4c3CCN4)CC2)CC1 [Compound 98, 9-[(6,7-Dihydro-5H-pyrrolo[2,3-d]pyrimidin-4-yl)-methyl-amino]-3-aza-spiro[5.5]undecane-3-carboxylic acid isopropyl ester]	10 to 100 nM	100 to 1000 nM	1 to 10 µM	–
CN(c1ncnc2[nH]ccc12)C1CCC2(CC1)CCN(C(=O)C1CC1)CC2 [Compound 99, Cyclopropyl-{9-[methyl-(7H-pyrrolo[2,3-d]pyrimidin-4-yl)-amino]-3-aza-spiro[5.5]undec-3-yl}-methanone]	10 to 100 nM	100 to 1000 nM	1 to 10 µM	–
CCCC(=O)N1CCC2(CCC(N(C)c3ncnc4[nH]ccc34)CC2)CC1 [Compound 100, 1-{9-[Methyl-(7H-pyrrolo[2,3-d]pyrimidin-4-yl)-amino]-3-aza-spiro[5.5]undec-3-yl}-butan-1-one]	100 to 1000 nM	100 to 1000 nM	1 to 10 µM	–
CN(c1ncnc2[nH]ccc12)C1CCC2(CC1)CCN(C(=O)c1cccc(OC(F)(F)F)c1)CC2 [Compound 101, {9-[Methyl-(7H-pyrrolo[2,3-d]pyrimidin-4-yl)-amino]-3-aza-spiro[5.5]undec-3-yl}-(3-trifluoromethoxy-phenyl)-methanone]	100 to 1000 nM	100 to 1000 nM	1 to 10 µM	–
CN(c1ncnc2[nH]ccc12)C1CCC2(CC1)CCN(C(=O)c1cccc(C#N)c1)CC2 [Compound 102, 3-{9-[Methyl-(7H-pyrrolo[2,3-d]pyrimidin-4-yl)-amino]-3-aza-spiro[5.5]undecane-3-carbonyl}-benzonitrile]	100 to 1000 nM	100 to 1000 nM	0.1 to 1 µM	–
CN(c1ncnc2[nH]ccc12)C1CCC2(CC1)CCN(S(=O)(=O)CC(F)(F)F)CC2 [Compound 103, Methyl-(7H-pyrrolo[2,3-d]pyrimidin-4-yl)-[3-(2,2,2-trifluoro-ethanesulfonyl)-3-aza-spiro[5.5]undec-9-yl]-amine]	10 to 100 nM	100 to 1000 nM	0.1 to 1 µM	–
CN(c1ncnc2[nH]ccc12)C1CCC2(CC1)CCN(C(=O)CC#N)CC2 [Compound 104, 3-{9-[Methyl-(7H-pyrrolo[2,3-d]pyrimidin-4-yl)-amino]-3-aza-spiro[5.5]undec-3-yl}-3-oxo-propionitrile]	1000 to 10000 nM	1000 to 10000 nM	1 to 10 µM	–
CN(c1ncnc2[nH]ccc12)C1CCC2(CC1)CCN(C(=O)c1cc3ccccc3s1)CC2 [Compound 105, Benzo[b]thiophen-2-yl-{9-[methyl-(7H-pyrrolo[2,3-d]pyrimidin-4-yl)-amino]-3-aza-spiro[5.5]undec-3-yl}-methanone]	100 to 1000 nM	100 to 1000 nM	1 to 10 µM	–
